Experimental data: ChEMBL document CHEMBL1201862, “PubChem BioAssay data set” (2004)
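Values below derive from 48-hour exposures of cells grown in 96-well plates, with endpoints linearly interpolated between the two concentrations bracketing the appropriate inhibition level. Abbreviation: GI50, concentration required for 50% inhibition of growth.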 The source made the active and inactive calls. Cut-off read from the data, not from the text of the source: active = GI50 up to about 1.1 µM and inactive = higher.

Assays:
Test in all cases: inhibition of tumour cell growth, NCI panel, 48 h
SNB-19 = system: SNB-19
Malme-3M = system: Malme-3M
MCF7 = system: MCF7
SF-268 = system: SF-268
SW-620 = system: SW-620
U-251 = system: U-251
CAKI-1 = system: CAKI-1
MOLT-4 = system: MOLT-4
KM12 = system: KM12
HCC 2998 = system: HCC 2998
NCI-H23 = system: NCI-H23
SR = system: SR
K562 = system: K562
OVCAR-4 = system: OVCAR-4
TK-10 = system: TK-10
CCRF-CEM = system: CCRF-CEM
SK-MEL-2 = system: SK-MEL-2
UACC-62 = system: UACC-62
Hs-578T = system: Hs-578T
RPMI-8226 = system: RPMI-8226
HL-60 = system: HL-60
PC-3 = system: PC-3
NCI/ADR-RES = system: NCI/ADR-RES
SNB-75 = system: SNB-75
HOP-62 = system: HOP-62
SK-MEL-5 = system: SK-MEL-5
M14 = system: M14
ACHN = system: ACHN
HCT-15 = system: HCT-15
MDA-MB-231 = system: MDA-MB-231
SK-MEL-28 = system: SK-MEL-28
T47D = system: T47D
SF-295 = system: SF-295
MDA-MB-435 = system: MDA-MB-435
A498 = system: A498
DU-145 = system: DU-145
UO-31 = system: UO-31
COLO 205 = system: COLO 205
OVCAR-5 = system: OVCAR-5
EKVX = system: EKVX
UACC-257 = system: UACC-257
786-0 = system: 786-0
A549 = system: A549
NCI-H460 = system: NCI-H460
SN12C = system: SN12C
HCT-116 = system: HCT-116
SF-539 = system: SF-539
IGROV-1 = system: IGROV-1
MDA-N = system: MDA-N
OVCAR-8 = system: OVCAR-8
NCI-H226 = system: NCI-H226
HT-29 = system: HT-29
SK-OV-3 = system: SK-OV-3
NCI-H522 = system: NCI-H522
HOP-92 = system: HOP-92
RXF 393 = system: RXF 393
LOX IMVI = system: LOX IMVI
OVCAR-3 = system: OVCAR-3
BT-549 = system: BT-549

Measured: GI50

O=C(/C=C/c1cccs1)c1ccc(Cl)s1
inactive: SNB-19 15.7 µM | Malme-3M > 100 µM | MCF7 17.2 µM | SF-268 38.7 µM | SW-620 23.3 µM | U-251 40.8 µM | CAKI-1 83.4 µM | MOLT-4 23.8 µM | KM12 21.8 µM | HCC 2998 18.7 µM | NCI-H23 23.1 µM | SR 25.2 µM | K562 31.3 µM | OVCAR-4 48.5 µM | TK-10 > 100 µM | CCRF-CEM 25.1 µM | SK-MEL-2 > 100 µM | UACC-62 45 µM | Hs-578T 46.7 µM | RPMI-8226 17.5 µM | HL-60 22.1 µM | PC-3 40.6 µM | NCI/ADR-RES > 100 µM | SNB-75 56 µM | HOP-62 > 100 µM | SK-MEL-5 50.7 µM | M14 38.8 µM | ACHN > 100 µM | MDA-MB-231 40.3 µM | SK-MEL-28 29.2 µM | T47D 35.1 µM | SF-295 37.8 µM | MDA-MB-435 21.9 µM | A498 55.7 µM | DU-145 56 µM | UO-31 19.9 µM | COLO 205 > 10 µM | OVCAR-5 54.3 µM | EKVX > 100 µM | UACC-257 39.8 µM | 786-0 > 10 µM | A549 42.9 µM | NCI-H460 72.8 µM | SN12C 18.6 µM | HCT-116 18.2 µM | SF-539 28.6 µM | IGROV-1 > 10 µM | MDA-N > 10 µM | OVCAR-8 37.9 µM | NCI-H226 28.7 µM | HT-29 > 10 µM | SK-OV-3 67 µM
18.2 µM: HCT-15

CC[N+](C)(CC)CCNC(=O)C(O)(c1ccccc1)c1ccccc1
active: LOX IMVI 0.2 µM
inactive: SNB-19 > 100 µM | Malme-3M > 100 µM | MCF7 > 100 µM | SF-268 > 100 µM | SW-620 > 100 µM | U-251 > 100 µM | CAKI-1 > 100 µM | MOLT-4 > 100 µM | KM12 72.9 µM | HCC 2998 > 100 µM | NCI-H23 > 100 µM | SR > 100 µM | K562 > 100 µM | OVCAR-4 > 100 µM | TK-10 > 100 µM | CCRF-CEM > 100 µM | UACC-62 > 100 µM | RPMI-8226 > 100 µM | HL-60 > 100 µM | PC-3 > 100 µM | NCI/ADR-RES > 100 µM | SNB-75 35.6 µM | HOP-62 > 100 µM | SK-MEL-5 > 100 µM | M14 > 100 µM | NCI-H522 > 100 µM | ACHN > 100 µM | SK-MEL-28 > 100 µM | SF-295 > 100 µM | HOP-92 > 100 µM | DU-145 > 100 µM | UO-31 > 100 µM | COLO 205 > 100 µM | OVCAR-5 > 100 µM | EKVX > 100 µM | UACC-257 > 100 µM | 786-0 > 100 µM | A549 > 100 µM | NCI-H460 > 100 µM | SN12C > 100 µM | HCT-116 > 100 µM | RXF 393 > 100 µM | SF-539 > 100 µM | IGROV-1 > 100 µM | OVCAR-3 > 100 µM | MDA-N > 100 µM | OVCAR-8 > 100 µM | NCI-H226 > 100 µM | HT-29 > 100 µM | BT-549 > 100 µM | SK-OV-3 > 100 µM
> 100 µM: HCT-15
